By pIC50 is commonly meant the IC50 on a negative log10 scale, so that one unit is a factor of ten.

Holding throughout (type): cell-based
Test [1] concerns DU145 (prostate carcinoma). As to the kind of experiment: In vitro antiproliferation assay, DU145 cells. How it is done:
(§1) Cis racemic Compound 15, (1S,2R) enantiomeric Compound 15a and […] enantiomeric Compound 15b were also tested against DU145 (prostate carcinoma), HCT116 (colorectal carcinoma) and MiaPaCa-2 (pancreatic carcinoma) cell lines.
(§2) Certain compounds were tested against other cell types for their ability to inhibit proliferation in standard antiproliferation assays.

Test [2] relates to A549 (lung carcinoma). As to the kind of experiment: In vitro antiproliferation assay, A549 cells (TABLE 1 6 point assay; TABLE 2). As to the method: as §2
In test [3] the test system is HCT116 (colorectal carcinoma). Kind of test: In vitro antiproliferation assay, HCT116 cells. As to conditions: Homo sapiens, HCT-116; HCT116 (colorectal carcinoma) cell line. How it is done:
as §1

In test [4] the test system is H1299 (non-small cell lung carcinoma). Kind of test: In vitro antiproliferation assay, H1299 cells (TABLE 1 6 point assay; TABLE 2). As to the method: as §2
Test [5] concerns MiaPaCa-2 (pancreatic carcinoma). Kind of test: In vitro antiproliferation assay, MiaPaCa-2 cells. As to the method: as §1, §2
For test [6], the system named is PC3 (prostate adenocarcinoma). Kind of test: In vitro antiproliferation assay, PC3 cells. As to the method: as §2
For test [7], the system named is MOLT3 (T lymphoblast acute lymphoblastic leukemia). As to the kind of experiment: In vitro antiproliferation assay, MOLT3 cells. As to the method: as §2
Test [8] has as its system ASPC-1 (pancreatic adenocarcinoma). As to the kind of experiment: In vitro antiproliferation assay, ASPC-1 cells. The following applies: ASPC1. As to the method:
as §2

Test [9] relates to U2OS (bone osteosarcoma). As to the kind of experiment: In vitro antiproliferation assay, U2OS cells. As to conditions: U20S. How it is done:
as §2

In test [10] the test system is L1210 (mouse lymphocytic leukemia). As to the kind of experiment: In vitro antiproliferation assay, L1210 cells. How it is done:
as §2

In test [11] the test system is SW620 (colorectal adenocarcinoma). As to the kind of experiment: In vitro antiproliferation assay, SW620 cells. How it is done: as §2
Test [12] relates to K562 (bone marrow chronic myelogenous leukemia). As to the kind of experiment: In vitro antiproliferation assay, K562 cells. How it is done:
as §2

For test [13], the system named is THP-1 (monocyte acute monocytic leukemia). Kind of test: In vitro antiproliferation assay, THP-1 cells. As to the method: as §2
The test system of test [14] is HELA (cervical adenocarcinoma). As to the kind of experiment: In vitro antiproliferation assay, HELA cells. As to the method: as §2
Test [15] relates to HL160 (promyeloblast promyelocytic leukemia). As to the kind of experiment: In vitro antiproliferation assay, HL160 cells. As to the method: as §2
Test [16] relates to COLO 205 (colorectal adenocarcinoma). As to the kind of experiment: In vitro antiproliferation assay, COLO 205 cells. The following applies: Colo205. As to the method: as §2
Test [17] deals with H1155 (non-small cell lung carcinoma). Kind of test: In vitro antiproliferation assay, H1155 cells. The following applies: H1155. How it is done:
as §2

Test [18] deals with H7299. As to the kind of experiment: In vitro antiproliferation assay, H7299 cells. How it is done:
as §2

Test [19] deals with MOLT4 (T lymphoblast acute lymphoblastic leukemia). Kind of test: In vitro antiproliferation assay, MOLT4 cells. How it is done:
as §2

For test [20], the system named is U937 (histiocytic lymphoma). Kind of test: In vitro antiproliferation assay, U937 cells. As to conditions: Homo sapiens, U-937. As to the method:
as §2

Test [21] concerns the target T1, Aurora kinase-B (Homo sapiens, UniProt Q96GD4).
T1 construct: endogenous in cells; host or cells: A549 cells
As to the kind of experiment: Functional cellular assay of Aurora kinase-B: phosphorylation of histone H3 in A549 cells. How it is done: Enantiomers E1 and E2 (Compounds 60a and 60b, respectively) were tested for their ability to inhibit Aurora kinase-B in a functional cellular assay involving phosphorylation of its substrate, histone H3. For the assay, A549 cells were seeded into the wells of a microtiter tray (5000 cells/well in 100 μl F12K media) late in the afternoon on Day 1. The cells were grown overnight (37° C., 5% CO2) On Day 2, 50 μl nocodazole (1 μM in media) was added to each well, giving a final concentration of 333 nM. Cells were grown for an additional 18 hrs under the same conditions.
On Day 3, 50 μl aliguots of varying concentrations of test compound were added to the wells Test compounds were prepared by 2-fold serial dilution of a […] stock (in DMSO). The diluted compounds in DMSO were then further diluted 1:50 with media to yield a final solution containing 4× test compound, 98% media, 2% DMSO. After incubation, the media/test compound was washed and the cells fixed with 2% paraformaldehyde (in Dulbecco's phosphate buffered saline “DPBS”; 25 μl per well; […] incubation). […] The cells were then stained with a secondary antibody labeled with a fluorescent dye (secondary antibody donkey anti-mouse AlexFluor 488 (Invitrogen Molecular Probes; 1:2000) and DAPI (1:15,000 of 1 mg/ml stock) for 1 hr at room temperature, washed three times with DPBS (200 μl/well) and stored under DPBS (100 μl/well) at 4° C. until ready for analysis.
A Zeiss Axiovert S100 inverted fluorescent microscope with a Plan-NEOFLUAR 10× objective, a Hamamatsu Lightningcure 200 Mercury-Xenon light source and an Omega Optical XF57 quad filter was used for all data collection. […] Images were captured and analyzed in 12-bit format using segmentation and morphological routines contained in the Image Pro software package. Identified nuclei were counted and pixel data for each cell along with experimental conditions was stored in a database using MySQL 4.0.14. […]
For phospho-histone H3 analysis the data is converted to Facs files and analysed using FlowJo. […]

For test [22], the system named is a variety of tumor cell types. As to the kind of experiment: In vitro antiproliferation assays against a variety of tumor cell types (stereoisomer comparison). How it is done:
Moreover, it has been discovered that the enantiomer corresponding to the (1R,2R,3S,4S) diastereomer of structural formula (IVa) is largely responsible for the potency of the exo-exo cis racemate.
as §2

The mark [23] stands for this setting: Homo sapiens, DU-145, DU145 (prostate carcinoma) cell line, read-out: IC50.
Setting [24] is: Homo sapiens, A549, 6 point assay, A549 cells, read-out: IC50, A549 cells.
[25] abbreviates: Homo sapiens, NCI-H1299, 6 point assay, H1299 cells, read-out: IC50, H1299 cells.
Setting [26] is: Homo sapiens, MIA PaCa-2, MiaPaCa-2 (pancreatic carcinoma) cell line, read-out: IC50.
[27] abbreviates: Homo sapiens, DU-145, DU145, read-out: In Vitro IC50.
The mark [28] stands for this setting: Homo sapiens, MIA PaCa-2, Miapaca2, read-out: In Vitro IC50.

pIC50: −log10 of the molar value. Where two headings read alike, the source gives them in different places.

T1 sequence (Q96GD4 whole entry): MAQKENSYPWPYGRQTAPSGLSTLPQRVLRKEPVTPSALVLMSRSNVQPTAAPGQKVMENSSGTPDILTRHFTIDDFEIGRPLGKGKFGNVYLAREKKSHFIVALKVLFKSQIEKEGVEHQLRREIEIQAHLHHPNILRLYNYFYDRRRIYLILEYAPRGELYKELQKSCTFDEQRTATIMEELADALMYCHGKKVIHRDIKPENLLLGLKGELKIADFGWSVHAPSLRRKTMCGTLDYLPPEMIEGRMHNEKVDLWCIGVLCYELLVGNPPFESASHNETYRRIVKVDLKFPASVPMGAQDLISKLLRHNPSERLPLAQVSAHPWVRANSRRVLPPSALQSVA

For the compound `Cc1cc(Nc2ncc(F)c(NC3CCCC3C(N)=O)n2)ccc1N1CCN(C)CC1` (racemic) [Compound 15, Racemic-cis-N4-(2-Aminocarbonylcyclopent-1-yl)-5-fluoro-N2-[4-(4-methylpiperazin-1-yl)-3-methylphenyl]-2,4-pyrimidinediamine], the pIC50 in [1] (setting [23]) was above 6.00; in [2] (setting [24]) it was 6.00 to 7.00; in test [3], above 6.00; in [4] (setting [25]) it was 6.00 to 7.00; in test [5] (setting [26]), above 6.00.
`Cc1cc(Nc2ncc(F)c(NC3C4C=CC(C4)C3C(N)=O)n2)ccc1N1CCN(C)CC1` (racemic) [Compound 60, 2-exo-3-exo racemic N4-(3-aminocarbonylbicyclo[2.2.1]hept-5-ene-2-yl)-5-fluoro-N2-[3-methyl-4-(4-methylpiperazin-1-yl)phenyl]-2,4-pyrimidinediamine]: the pIC50 in test [6] was at least 7.70; in test [7] it was at least 8.00; in [8], at least 7.70; in test [9] it was at least 7.70; in [10], at least 6.00; in test [11], at least 6.00. Also, the pIC50 was at least 6.00 in test [12]; at least 6.00 in test [13]; at least 8.00 in [14] (HELA); at least 8.00 in test [15]; at least 7.70 in test [1] (DU145, read-out: In Vitro IC50); at least 8.00 in test [16]. In addition, the pIC50 is at least 7.70 in test [2] (A549, read-out: In Vitro IC50); at least 8.00 in test [17]; at least 8.00 in test [5] (Miapaca2, read-out: In Vitro IC50); at least 7.70 in [18]; at least 8.00 in test [19].
On to `Cc1cc(Nc2ncc(F)c(NC3C4C=CC(C4)C3C(N)=O)n2)ccc1N1CCN(C)CC1` (racemic) [compound 221, Racemic-(2-exo, 3-exo)-N4-(3-aminocarbonylbicyclo[2.2.1]hept-5-en-2-yl)-5-fluoro-N2-[3-methyl-4-(4-methylpiparazin-1-yl)phenyl]-2,4-pyrimidinediamine], for which the pIC50 is at least 8.00 in [7] (Homo sapiens, MOLT-3); at least 7.70 in test [8] (Homo sapiens); at least 7.70 in test [9] (Homo sapiens, U2OS); at least 6.00 in test [10] (Mus musculus); at least 7.70 in test [11] (Homo sapiens, SW-620); at least 6.00 in test [12] (Homo sapiens). Besides, the negative logarithm of the IC50 (pIC50) is at least 7.70 in [13] (Homo sapiens); at least 8.00 in test [14] (Homo sapiens, HeLa); at least 8.00 in test [15]; at least 8.00 in [1] (setting [27]); at least 8.00 in test [16] (Homo sapiens, COLO 205); at least 8.00 in test [2] (A549, read-out: In Vitro IC50). The pIC50 in [2] (setting [24]) was at least 7.00; in [20] it was at least 8.00; in test [4] (H1299, read-out: In Vitro IC50), at least 7.70; in test [4] (setting [25]), at least 7.00; in test [5] (setting [28]), at least 8.00; in [19] (Homo sapiens, MOLT-4), at least 8.00.
As to `Cc1cc(Nc2ncc(F)c(N[C@H]3CCC[C@H]3C(N)=O)n2)ccc1N1CCN(C)CC1` (stereo in doubt) [Compound 15a, (1S,2R)—N4-(2-Aminocarbonylcyclopent-1-yl)-5-fluoro-N2-[4-(4-methylpiperazin-1-yl)-3-methylphenyl]-2,4-pyrimidinediamine], the pIC50 was 6.00 to 7.00 in [2] (setting [24]), above 6.00 in [3], 6.00 to 7.00 in [4] (setting [25]) and above 6.00 in test [5] (setting [26]).
Regarding `Cc1cc(Nc2ncc(F)c(N[C@@H]3CCC[C@@H]3C(N)=O)n2)ccc1N1CCN(C)CC1` (stereo in doubt) [Compound 15b, (1R,2S)—N4-(2-Aminocarbonylcyclopent-1-yl)-5-fluoro-N2-[4-(4-methylpiperazin-1-yl)-3-methylphenyl]-2,4-pyrimidinediamine], the negative logarithm of the IC50 (pIC50) in test [1] (setting [23]) was above 5.30; in test [2] (setting [24]) it was 5.00 to 6.00; in test [3], above 5.30; in test [4] (setting [25]) it was 5.00 to 6.00; in [5] (setting [26]), above 5.30.
Regarding `Cc1cc(Nc2ncc(F)c(NC3C(C(N)=O)[C@H]4C=C[C@@H]3C4)n2)ccc1N1CCN(C)CC1` (stereo in doubt) [Compound 60b, (1S,2R,3S,4R)—N4-(3-Aminocarbonylbicyclo[2.2.1]hept-5-en-2-yl)-5-fluoro-N2-[3-methyl-4-(4-methylpiperazin-1-yl)phenyl]-2,4-pyrimidinediamine], the negative logarithm of the IC50 (pIC50) is below 6.00 in test [6] (Homo sapiens, PC-3); below 6.00 in test [7] (Homo sapiens, MOLT-3); at least 6.00 in [9] (Homo sapiens, U2OS); below 6.00 in [10] (Mus musculus); below 6.00 in test [11] (Homo sapiens, SW-620); below 6.00 in test [12] (Homo sapiens). Moreover, the pIC50 was at least 6.00 in test [13] (Homo sapiens); below 6.00 in test [14] (Homo sapiens, HeLa); below 6.00 in test [15]; at least 6.00 in test [1] (setting [27]); below 6.00 in [16] (Homo sapiens, COLO 205); 5.00 to 6.00 in test [2] (setting [24]). In addition, the pIC50 is below 6.00 in test [2] (Homo sapiens, A549, A549, read-out: In Vitro IC50); 5.60 in test [21] (A549 cells, phospho-histone H3, read-out: IC50 of Aurora kinase-B inhibition); below 6.00 in [20]; 5.00 to 6.00 in [4] (setting [25]); below 6.00 in [4] (Homo sapiens, NCI-H1299, H1299, read-out: In Vitro IC50); below 6.00 in test [5] (setting [28]). Besides, the pIC50 in test [18] is below 6.00; in test [19] (Homo sapiens, MOLT-4), below 6.00.
With `Cc1cc(Nc2ncc(F)c(NC3C4C=CC(C4)C3C(N)=O)n2)ccc1N1CCN(C)CC1` [(1R,2R,3S,4S) diastereomer, N4-(3-aminocarbonylbicyclo[2.2.1]hept-5-en-2-yl)-5-fluoro-N2-[3-methyl-4-(4-methylpiperazin-1-yl)phenyl]-2,4-pyrimidinediamine], the “Potency relative to the endo-endo racemate” value in test [22] ((1R,2R,3S,4S) diastereomer, more potent) is listed as 20-50 times. Moreover, the “Potency relative to the (1S,2S,3R,4R) diastereomer” value in test [22] (more potent) is reported as “approximately 1000 fold”. The “IC50s when tested as isolated stereoisomers” value in test [22] (range in words, same cell lines) was “nanomolar range”. Also, the “Result in cell-based inhibition assays against Aurora kinase B compared to the (1S,2S,3R,4R) diastereomer” value in [21] (in words) was “similarly superior results”.
